Patent US6846840B2, “Cytotoxic N-unsubstituted indoles and cyclopent(B)indoles and method of making and using same” (Arizona Board of Regents acting for and on behalf of …, priority 1999, dated 2005)
Like-named read-outs stand apart in the source and are kept apart here.

How the values were obtained:
[1] = test system: NSC LUNG cancer cell lines; details: log of concentration causing 50% lethality; arithmetic average of six to eight NSC lung cell lines
RENAL cancer cell lines = details: log of concentration causing 50% lethality; arithmetic average of six to eight renal cell lines
Description: (§1) For each histologic cancer type, the average −log LC50 value was determined from an NCI panel consisting of six to eight human cancer cell lines. {Paull, D. K.; Shoemaker, R. H.; Hodes, L.; Monks, A.; Scudiero, D. A.; Rubinstein, L.; Plowman, J.; Boyd, M. R. Display and Analysis of Differential Activity of Drugs Against Human Tumor Cell Lines: Development of Mean Graph and COMPARE Algorithm.

[2] = test system: PROSTATE cancer cell lines; details: log of concentration causing 50% lethality; arithmetic average of six to eight prostate cell lines
Description: as §1

[3] = test system: OVARIAN cancer cell lines; details: log of concentration causing 50% lethality; arithmetic average of six to eight ovarian cell lines
Description: as §1

BREAST cancer cell lines = details: log of concentration causing 50% lethality; arithmetic average of six to eight breast cell lines
Description: as §1

CNS cancer cell lines = details: log of concentration causing 50% lethality; arithmetic average of six to eight CNS cell lines
[4] = test system: LEUKEMIA cancer cell lines; details: log of concentration causing 50% lethality; arithmetic average of six to eight leukemia cell lines
[5] = test system: MELANOMA cancer cell lines; details: log of concentration causing 50% lethality; arithmetic average of six to eight melanoma cell lines
COLON cancer cell lines = details: log of concentration causing 50% lethality; arithmetic average of six to eight colon cell lines
B-16 melanoma = details: for area under the tumor-growth curve (AUC): control 11.39; for in vivo activity (effect on tumor mass), in words: B16 syngraft, dosing on days 1, 5, and 9 after implantation of 10^5 cells
Description: This compound was studied at three dose levels: 2, 3 and 5 mg/Kg IP on days 1, 5, and 9 after tumor implantation into the front flank muscle. Shown in the plot are the AUC values as a function of time for each dosage. The control was obtained with drug-free animals.

600 bp calf thymus DNA = assay: Alkylation of DNA by reduced indoloquinones; details: FIG. 2
rat liver DT-diaphorase = molecular target: T1, rat liver DT-diaphorase (Rattus norvegicus, UniProt P05982); details: FIG. 2
T1 sequence (P05982 2-274 limits assumed): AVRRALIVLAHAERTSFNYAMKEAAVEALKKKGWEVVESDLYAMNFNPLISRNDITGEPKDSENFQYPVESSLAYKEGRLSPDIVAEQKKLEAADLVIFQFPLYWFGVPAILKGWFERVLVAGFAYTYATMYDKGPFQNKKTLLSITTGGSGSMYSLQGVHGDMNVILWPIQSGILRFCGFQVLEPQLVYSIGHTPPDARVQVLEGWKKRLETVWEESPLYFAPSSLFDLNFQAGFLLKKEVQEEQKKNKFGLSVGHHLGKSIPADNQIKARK

[6] = 1 mg/Kg IP on days 1, 5, and 9 after tumor implantation
[7] = 3 mg/Kg IP on days 1, 5, and 9 after tumor implantation

Structure (SMILES)	Log LC50 [1] [moles/liter]	Log LC50 (RENAL cancer cell lines) [moles/liter]	Log LC50 [2] [moles/liter]	Log LC50 [3] [moles/liter]	Log LC50 (BREAST cancer cell lines) [moles/liter]	Log LC50 (CNS cancer cell lines) [moles/liter]	Log LC50 [4] [moles/liter]	Log LC50 [5] [moles/liter]	Log LC50 (COLON cancer cell lines) [moles/liter]	area under the tumor-growth curve (AUC) (B-16 melanoma; [6])	area under the tumor-growth curve (AUC) (B-16 melanoma; [7])	in vivo activity (effect on tumor mass), in words (B-16 melanoma)	% reductive alkylation of DNA, in words (600 bp calf thymus DNA)	DT-diaphorase substrate activity, in words (rat liver DT-diaphorase)
CC1=C(N2CC2)C(=O)c2[nH]c3c(c2C1=O)CCC3O (centres unmarked) [Cyclopent[b]indole 3b, 6-Aziridinyl-1,4-Dihydro-3-hydroxy-7-methyl-(2H) cyclopent[b]indole-5,8-dione]	−4.22	−4.73	−4.5	−4.05	−4.47	−4.54	−4.06	−4.85	−4.45	–	–	–	–	–
CC(=O)OC1CCc2c1[nH]c1c2C(=O)C(C)=C(N2CC2)C1=O (centres unmarked) [Cyclopent[b]indole 3c, 3-Acetoxy-6-aziridinyl-1,4-dihydro-7-methyl-(2H) cyclopent [b]indole-5,8-dione]	−4.65	−4.72	−4.63	−4.366	−4.53	−4.7	−4.3	−4.99	−4.85	6.67	6.92	reduce the tumor mass substantially	highest % alkylation of DNA	–
CC1=C(N2CC2)C(=O)c2c([nH]c(CO)c2C)C1=O [Indole 1b, 5-Aziridinyl-2-(hydroxymethyl)-3,6-dimethylindole-4,7-dione]	−4.37	−4.53	−4.78	>−4	−4.56	>−4	>−4	−5.39	−4.32	–	–	–	–	–
CC(=O)OCc1[nH]c2c(c1C)C(=O)C(C)=C(N1CC1)C2=O [Indole 2c, 2-(Acetoxymethyl)-6-aziridinyl-3,5-dimethylindole-4,7-dione]	−4.1	−4.14	>−4	>−4	>−4	>−4	>−4	−4.15	>−4	13.83	8.59	inactive at both concentrations	–	–
CC1=C(N2CC2)C(=O)c2[nH]c(CO)c(C)c2C1=O [Indole 2b, 6-Aziridinyl-2-(hydroxymethyl)-3,5-dimethylindole-4,7-dione]	−4.1	−4.23	−4.2	>−4	−4.05	−4.05	>−4	−4.4	−4.2	–	–	–	–	–
CC(=O)OCc1[nH]c2c(c1C)C(=O)C(N1CC1)=C(C)C2=O [Indole 1c, 2-(Acetoxymethyl)-5-aziridinyl-3,6-dimethylindole-4,7-dione]	−4.48	−4.54	−5.01	−4.46	−4.57	−4.83	>−4	−5.64	−5.08	10.94	15.82	decreased tumor mass only at the 3 mg/kg dose	–	–
CC1=C(N2CC2)C(=O)c2c([nH]c(C)c2C)C1=O [Indole 1a, 5-Aziridinyl-2,3,6-trimethylindole-4,7-dione]	−4.29	>−4	>−4	>−4	>−4	>−4	>−4	−4.42	>−4	–	–	–	–	–
CC1=C(N2CC2)C(=O)c2[nH]c3c(c2C1=O)CCC3=O [Cyclopent[b]indole 3e, 6-Aziridinyl-1,4-dihydro-7-methyl-(2H) cyclopent [b]indole-3,5,8-trione]	−5.37	−5.34	−4.8	−4.86	−4.9	−5.13	>−4	−5.99	−5.44	–	–	completely inactive	–	–
COC1CCc2c1[nH]c1c2C(=O)C(C)=C(N2CC2)C1=O (centres unmarked) [Cyclopent[b]indole 3d, 6-Aziridinyl-1,4-dihydro-3-methoxy-7-methyl-(2H) cyclopent[b]indole-5,8-dione]	−4.2	−4.58	−4.46	>−4	−4.33	−4.17	−4.06	−4.92	−4.318	–	–	–	–	–
CC(=O)OC1CCc2c3c(n(C(C)=O)c21)C(=O)C(N1CC1)=C(C)C3=O (centres unmarked) [Cyclopent[b]indole 14, 3-Acetoxy-4-acetyl-6-aziridinyl-1,4-Dihydro-7-methyl-(2H) cyclopent[b]indole-5,8-dione]	−4.42	−4.78	−4.71	−4.18	−4.5	−4.75	>−4	−5.06	−4.77	–	–	enhances antitumor activity greatly	readily alkylates DNA	excellent substrate for DT-diaphorase
